Data from the supplement of paper PMC4862054.

Experiments:
Experiment in all cases: normalised response (% of control), CellTiter-Glo; higher = more viable cells (100 = DMSO, 0 = benzethonium chloride kill control)
Conditions in all cases: incubation time: 72 h
CAL-85-1 = system: CAL-85-1
How it was run: (§1)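 Plates were normalised with 0.1 % DMSO as 100 and a positive kill control as 0. Breast cancer cell lines in 20 µl suspension had been seeded into 384-well plates with compound at 5 concentrations in 10-fold steps over a compound-specific 10,000-fold range, incubated 72 h, and read for CellTox Green fluorescence (485/520 nm) followed by CellTiter-Glo luminescence. Each value is the normalised signal at a single concentration.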

HCC1143 = system: HCC1143
How it was run: as §1

HCC1599 = system: HCC1599
How it was run: as §1

HDQ-P1 = system: HDQ-P1
How it was run: as §1

MCF-10A = system: MCF-10A
How it was run: as §1

MDA-MB-231 = system: MDA-MB-231
How it was run: as §1

MDA-MB-468 = system: MDA-MB-468
How it was run: as §1

SK-BR-3 = system: SK-BR-3
How it was run: as §1

Row | SMILES | normalised response (CAL-85-1) [%] | normalised response (HCC1143) [%] | normalised response (HCC1599) [%] | normalised response (HDQ-P1) [%] | normalised response (MCF-10A) [%] | normalised response (MDA-MB-231) [%] | normalised response (MDA-MB-468) [%] | normalised response (SK-BR-3) [%]
1 | COc1cc2c(cc1O)CC[C@@H]1[C@@H]2CC[C@]2(C)[C@@H](O)CC[C@@H]12 [2-methoxyestradiol] (1000 nM) | 77.6 | 82.5 | 96.6 | 99.9 | 96 | 73.9 | 95.1 | 83.2
2 | CC1=C2C[C@H]3[C@@H](CC=C4C[C@@H](O)CC[C@@]43C)[C@@H]2CC[C@]12O[C@@H]1C[C@H](C)CN[C@H]1[C@H]2C [Cyclopamine] (1000 nM) | 106 | 105 | 108 | 103 | 106 | 112 | 105 | 111
3 | Cn1cc(C2=Nc3cc(NC(=O)C(N)C4CCCCC4)cc4c3C2=CNNC4=O)cn1 (configuration not stated) (1000 nM) | 36.8 | 64.5 | 11.9 | 85.2 | 74.5 | 63.7 | 30.7 | 17.8
4 | CC1(C)CNc2cc(NC(=O)c3cccnc3NCc3ccncc3)ccc21 [Motesanib] (1000 nM) | 93.5 | 93.6 | 98.1 | 96.6 | 96.9 | 89.1 | 91.5 | 80.6
5 | Nc1nc2[nH]cnc2c(=S)[nH]1 [Thioguanine] (1000 nM) | 70.3 | 99.1 | 82 | 66.1 | 99.8 | 50.7 | 95.7 | 95.4
6 | O=C1CN2Cc3c(ccc(Cl)c3Cl)N=C2N1 [Anagrelide] (1000 nM) | 101 | 97.9 | 118 | 95.1 | 101 | 94.2 | 102 | 98.2
7 | Oc1ncnc2[nH]ncc12 [Allopurinol] (1000 nM) | 96.2 | 107 | 119 | 98.1 | 106 | 103 | 106 | 112
8 | Cn1cnc2c(F)c(Nc3ccc(Br)cc3Cl)c(C(=O)NOCCO)cc21 [Selumetinib] (1000 nM) | 107 | 85.1 | 93.9 | 63.8 | 37.6 | 72.5 | 87.8 | 86.8
9 | CC[C@@H]1C(=O)OC[C@@H]1Cc1cncn1C [Pilocarpine] (4000 nM) | 102 | 92.2 | 92.7 | 92 | 93.8 | 97.4 | 91.8 | 92.4
10 | Cc1sc2c(c1C)C(c1ccc(Cl)cc1)=N[C@@H](CC(=O)OC(C)(C)C)c1nnc(C)n1-2 [(+)JQ1] (1000 nM) | 38.7 | 72.8 | 80 | 68.5 | 57.1 | 77.2 | 55.1 | 66.9
11 | O=NN(CCCl)C(=O)NCCCl [Carmustine] (1000 nM) | 97.5 | 100 | 101 | 101 | 98.3 | 97.8 | 96.8 | 96.2
12 | Nc1ncn([C@@H]2O[C@H](CO)[C@@H](O)[C@H]2O)c(=O)n1 [Azacitidine] (1000 nM) | 106 | 99.5 | 84.9 | 96.4 | 110 | 97.4 | 39 | 91.7
13 | CC(=O)O[C@@]12CO[C@@H]1C[C@H](O)[C@@]1(C)C(=O)[C@H](O)C3=C(C)[C@@H](OC(=O)[C@H](O)[C@@H](NC(=O)OC(C)(C)C)c4ccccc4)C[C@@](O)([C@@H](OC(=O)c4ccccc4)[C@H]21)C3(C)C [Docetaxel] (100 nM) | 28.1 | 31.5 | 28.5 | 67.1 | 41.5 | 28.7 | 36.6 | 10.1
14 | CC(C)(C)c1cnc(CSc2cnc(NC(=O)C3CCNCC3)s2)o1 [SNS-032] (1000 nM) | 6.5 | 12.1 | 7.69 | 20.8 | 14.3 | 7.43 | 5.83 | 3.47
